We go through 45 compounds from ChEMBL document CHEMBL5352409, “Design, synthesis, and pharmacological evaluation of 2-(1-(1,3,4-thiadiazol-2-yl)piperidin-4-yl)ethan-1-ol analogs as novel glutaminase 1 inhibitors” (Eur J Med Chem, 2022).

One may read the IC50 as the concentration needed to halve the response being measured.

One experiment concerns HCT-116. The experiment in a line: cells. The following applies: Homo sapiens.
Experiment [1] deals with T1, Glutaminase kidney isoform, mitochondrial (Homo sapiens, UniProt O94925).
T1 sequence (O94925 whole entry): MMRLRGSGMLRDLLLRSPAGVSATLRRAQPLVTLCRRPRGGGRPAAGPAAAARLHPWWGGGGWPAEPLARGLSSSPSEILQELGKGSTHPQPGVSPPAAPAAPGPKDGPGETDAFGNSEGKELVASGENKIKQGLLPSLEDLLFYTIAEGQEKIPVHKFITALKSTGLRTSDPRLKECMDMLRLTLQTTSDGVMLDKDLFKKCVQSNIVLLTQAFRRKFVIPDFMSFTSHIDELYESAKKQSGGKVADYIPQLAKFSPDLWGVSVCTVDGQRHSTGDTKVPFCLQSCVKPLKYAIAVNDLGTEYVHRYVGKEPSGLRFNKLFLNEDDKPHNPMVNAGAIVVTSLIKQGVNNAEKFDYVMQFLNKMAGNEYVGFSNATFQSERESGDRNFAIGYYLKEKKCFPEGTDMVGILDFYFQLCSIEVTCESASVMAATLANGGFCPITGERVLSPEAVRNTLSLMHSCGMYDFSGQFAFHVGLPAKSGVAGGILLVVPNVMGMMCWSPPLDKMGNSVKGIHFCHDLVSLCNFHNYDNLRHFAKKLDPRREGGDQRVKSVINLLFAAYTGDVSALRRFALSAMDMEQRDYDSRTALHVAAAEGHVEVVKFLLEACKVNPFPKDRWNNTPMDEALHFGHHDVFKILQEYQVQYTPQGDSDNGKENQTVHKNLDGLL
The experiment in a line: Inhibition of GLS1 (unknown origin).

The subject of another experiment is A549. The experiment in a line: Antiproliferative activity against human A549 cells assessed as reduction in cell viability. Type of experiment: functional, cell-based.

As to `O=C(Cc1ccccc1)Nc1nnc(N2CCN(Cc3ccc(C(=O)NCCc4ccc(F)cc4)cc3)CC2)s1`, the IC50 in the experiment on HCT-116 was 0.57 µM; in experiment [1], 0.3 µM; with A549 it was 2.04 µM.
With `O=C(Cc1ccccc1)Nc1nnc(N2CCN(Cc3ccc(C(=O)NCCN4CCCCC4)cc3)CC2)s1`, the IC50 in the experiment on HCT-116 came out at 1.09 µM; in experiment [1], 0.162 µM; in the experiment with A549 it was 3.28 µM.
The like results for `CN1CCN(c2cccc(C(=O)Nc3ccc(CN4CCN(c5nnc(NC(=O)Cc6ccccc6)s5)CC4)cc3)c2)CC1` were, in that order, 1.26 µM, 0.123 µM and 1.05 µM.
For `O=C(Cc1ccccc1)Nc1nnc(N2CCN(Cc3ccc(C(=O)NCCN4CCCC4)cc3)CC2)s1` the same measures were 1.66 µM, 0.163 µM and 3.65 µM.
Consider `CC(C)c1ccc(CNC(=O)c2cccc(CN3CCN(c4nnc(NC(=O)Cc5ccccc5)s4)CC3)c2)cc1`, for which the IC50 with HCT-116 and in the experiment on A549 was above 10 µM in each case.
Turning to `C=CCCC(=O)N1CCC(CNC(=O)c2cccc(COCCC3CCN(c4nnc(NC(=O)Cc5ccccc5)s4)CC3)c2)CC1`, the IC50 in the experiment on HCT-116 was 4.03 µM; in experiment [1], 0.35 µM; in the experiment on A549, 3.52 µM.
The like results for `CCNCCNC(=O)c1ccc(CN2CCN(c3nnc(NC(=O)Cc4ccccc4)s3)CC2)cc1` were, in that order, 1.28 µM, 0.221 µM and 2.26 µM.
The like results for `O=C(Cc1ccccc1)Nc1nnc(N2CCN(Cc3cccc(C(=O)NCCN4CCCCC4)c3)CC2)s1` were, in that order, 1.67 µM, 0.212 µM and 2.03 µM.
The like results for `O=C(Cc1ccccc1)Nc1nnc(N2CCN(Cc3ccc(C(=O)N4CCC(CO)CC4)cc3)CC2)s1` were, in that order, 3.92 µM, 0.363 µM and 4.06 µM.
Consider `CCCCNC(=O)c1ccc(COCC2CCN(c3nnc(NC(=O)Cc4ccccc4)s3)CC2)cc1`, for which the IC50 in the experiment on HCT-116 came to 4.98 µM; in experiment [1], 0.53 µM; in the experiment on A549, 5.84 µM.
The like results for `CCCCN1CCC(CNC(=O)c2cccc(COCCC3CCN(c4nnc(NC(=O)Cc5ccccc5)s4)CC3)c2)CC1` were, in that order, 1.08 µM, 0.16 µM and 1.55 µM.
Turning to `O=C(Cc1ccccc1)Nc1nnc(N2CCN(Cc3ccc(C(=O)NC4CCCC4)cc3)CC2)s1`, the IC50 with HCT-116 worked out at 1.49 µM; in experiment [1], 0.132 µM; in the experiment with A549, 1.09 µM.
In the case of `O=C(Cc1ccccc1)Nc1ccc(CN2CCN(c3nnc(NC(=O)Cc4ccccc4)s3)CC2)cc1`, the IC50 with HCT-116 and in the experiment on A549 was above 10 µM in each case.
`O=C(Cc1ccccc1)Nc1nnc(N2CCN(Cc3cccc(C(=O)NCCc4ccc(F)cc4)c3)CC2)s1`: the half-inhibitory concentration (IC50) in the experiment with HCT-116 and with A549 was above 10 µM throughout.
With `CN1CCC(CNC(=O)c2cccc(COCCC3CCN(c4nnc(NC(=O)Cc5ccccc5)s4)CC3)c2)CC1`, the IC50 stood at 8.12 µM in the experiment with HCT-116, 0.802 µM in experiment [1] and 9.07 µM in the experiment with A549.
Take `Cc1ccccc1CN1CCC(CNC(=O)c2ccc(COCCC3CCN(c4nnc(NC(=O)Cc5ccccc5)s4)CC3)cc2)CC1`: the IC50 in the experiment with HCT-116 amounted to 0.81 µM; in experiment [1], 0.135 µM; in the experiment with A549, 1.26 µM.
The like results for `CCCNC(=O)c1ccc(COCCC2CCN(c3nnc(NC(=O)Cc4ccccc4)s3)CC2)cc1` were, in that order, 2.89 µM, 0.42 µM and 3.45 µM.
For `CCN(CC)CCNC(=O)c1ccc(CN2CCN(c3nnc(NC(=O)Cc4ccccc4)s3)CC2)cc1`, the IC50 with HCT-116 amounted to 2.86 µM; in experiment [1] it was 0.264 µM; with A549 it was 2.07 µM.
The like results for `CN1CCN(c2cccc(C(=O)Nc3cccc(CN4CCN(c5nnc(NC(=O)Cc6ccccc6)s5)CC4)c3)c2)CC1` were, in that order, 1.19 µM, 0.077 µM and 0.98 µM.
For `Cc1ccc(NC(=O)c2ccc(CN3CCN(c4nnc(NC(=O)Cc5ccccc5)s4)CC3)cc2)cc1` the same measures were 1.08 µM, 0.212 µM and 1.68 µM.
For `O=C(Cc1ccccc1)Nc1nnc(N2CCC(OCc3ccc(C(=O)NCCN4CCCC4)cc3)CC2)s1` the same measures were 3.81 µM, 1.25 µM and 1.25 µM.
Take `CCN(CC)CCNC(=O)c1ccc(CCc2nnc(NC(=O)Cc3ccccc3)s2)cc1`: the concentration for half-maximal inhibition (IC50) (with HCT-116; in experiment [1]; in the experiment on A549) was above 10 µM each time.
Take `CC(C)N1CCC(CNC(=O)c2cccc(COCCC3CCN(c4nnc(NC(=O)Cc5ccccc5)s4)CC3)c2)CC1`: the IC50 with HCT-116 and in the experiment on A549 was above 10 µM in each case.
As to `O=C(Cc1ccccc1)Nc1nnc(N2CCC(CCOCc3cccc(C(=O)NCCN4CCCC4)c3)CC2)s1`, the values for the IC50 (in the experiment on HCT-116; in experiment [1]; in the experiment with A549) were 8.95 µM, 0.489 µM and 9.68 µM, respectively.
The like results for `O=C(Cc1ccccc1)Nc1nnc(N2CCN(Cc3ccc(C(=O)NCc4cccc(C(F)(F)F)c4)cc3)CC2)s1` were, in that order, 1.49 µM, 0.253 µM and 1.85 µM.
For `O=C(Cc1ccccc1)Nc1nnc(CCc2ccc(C(=O)N3CCCCC3)cc2)s1` the same measures were above 10 µM, above 10 µM and above 10 µM.
As to `CCN1CCC(NC(=O)c2ccc(COC3CCN(c4nnc(NC(=O)Cc5ccccc5)s4)CC3)cc2)CC1`, the values for the IC50 (with HCT-116; in experiment [1]; with A549) were above 10 µM, 2.55 µM and above 10 µM, respectively.
`Cc1cccc(CN(C)C(=O)c2ccc(CN3CCN(c4nnc(NC(=O)Cc5ccccc5)s4)CC3)cc2)c1`: the IC50 was above 10 µM with HCT-116, above 1 µM in experiment [1] and above 10 µM in the experiment on A549.
Take `CN1CCN(c2ccc(C(=O)Nc3cccc(CN4CCN(c5nnc(NC(=O)Cc6ccccc6)s5)CC4)c3)cc2)CC1`: the figures for the IC50 (with HCT-116; in experiment [1]; in the experiment with A549) were 1.53 µM, 0.089 µM and 1.05 µM, respectively.
For `CCN(CC)CCNC(=O)c1cccc(CN2CCN(c3nnc(NC(=O)Cc4ccccc4)s3)CC2)c1` the same measures were 1.49 µM, 0.345 µM and 2.42 µM.
Regarding `CCCNC(=O)c1ccc(CCc2nnc(NC(=O)Cc3ccccc3)s2)cc1`, the IC50 (in the experiment on HCT-116; in experiment [1]; in the experiment on A549) was above 10 µM each time.
For `O=C(Cc1ccccc1)Nc1nnc(N2CCC(CCOCc3cccc(C(=O)NCCN4CCCCC4)c3)CC2)s1`, the IC50 in the experiment on HCT-116 is 7.05 µM; in experiment [1], 0.555 µM; in the experiment on A549, 8.52 µM.
The like results for `O=C(Cc1ccccc1)Nc1nnc(N2CCN(Cc3ccc(C(=O)NCCNc4ccccc4)cc3)CC2)s1` were, in that order, 1.09 µM, 0.106 µM and 1.22 µM.
The like results for `O=C(Cc1ccccc1)Nc1nnc(N2CCC(CCOCc3ccc(C(=O)NCC4CCN(Cc5cc(F)cc(F)c5)CC4)cc3)CC2)s1` were, in that order, 0.8 µM, 0.12 µM and 1.89 µM.
For `O=C(Cc1ccccc1)Nc1nnc(N2CCC(CCOCc3cccc(C(=O)N4CCN(c5cccc(F)c5)CC4)c3)CC2)s1` the same measures were 8.52 µM, 0.546 µM and 7.42 µM.
Take `CCN(CC)CCNC(=O)c1cccc(COCCC2CCN(c3nnc(NC(=O)Cc4ccccc4)s3)CC2)c1`: the IC50 in the experiment on HCT-116 was found to be 9.03 µM; in experiment [1] it was 0.621 µM; in the experiment with A549 it was 7.51 µM.
The like results for `O=C(Cc1ccccc1)Nc1nnc(N2CCC(CCOCc3cccc(C(=O)NCC4CCN(Cc5cc(F)cc(F)c5)CC4)c3)CC2)s1` were, in that order, 0.69 µM, 0.126 µM and 0.98 µM.
The like results for `CN1CCN(c2ccc(NC(=O)c3ccc(CN4CCN(c5nnc(NC(=O)Cc6ccccc6)s5)CC4)cc3)cc2)CC1` were, in that order, 0.67 µM, 0.25 µM and 1.28 µM.
For `CCN(CC)CCNC(=O)c1ccc(COCCC2CCN(c3nnc(NC(=O)Cc4ccccc4)s3)CC2)cc1`, the 50% inhibitory concentration (IC50) is 1.2 µM in the experiment on HCT-116, 0.44 µM in experiment [1] and 4.38 µM in the experiment on A549.
For `CCCNC(=O)c1ccc(COC2CCN(c3nnc(NC(=O)Cc4ccccc4)s3)CC2)cc1` the same measures were 4.08 µM, 1.08 µM and 1.08 µM.
For `COCCNC(=O)c1ccc(CN2CCN(c3nnc(NC(=O)Cc4ccccc4)s3)CC2)cc1` the same measures were above 10 µM, above 10 µM and above 10 µM.
For `CN1CCC(CNC(=O)c2cccc(CN3CCN(c4nnc(NC(=O)Cc5ccccc5)s4)CC3)c2)CC1` the same measures were 1.56 µM, 0.432 µM and 3.96 µM.
Consider `O=C(Cc1ccccc1)Nc1nnc(N2CCN(Cc3cccc(C(=O)NCc4ccc(C(F)(F)F)cc4)c3)CC2)s1`, for which the IC50 in the experiment with HCT-116 and in the experiment on A549 was above 10 µM throughout.
Regarding `CN1CCC(CNC(=O)c2ccc(CN3CCN(c4nnc(NC(=O)Cc5ccccc5)s4)CC3)cc2)CC1`, the IC50 (in the experiment on HCT-116; in experiment [1]; in the experiment with A549) was above 10 µM each time.
Take `O=C(Cc1ccccc1)Nc1cccc(CN2CCN(c3nnc(NC(=O)Cc4ccccc4)s3)CC2)c1`: the IC50 with HCT-116 and with A549 was above 10 µM in each case.
